Laboratory results from the NIST ThermoML archive (doi:10.1021/acs.jced.9b00422).
Numbers after ± are expanded uncertainties. Each block holds one molecule with its values, some of them ahead of it.

Assay: wn = mass fraction of the nth substance listed
Settings: 323 K, 101.3 kPa, Liquid, Pycnometric method

mass density (w1 = 0.568): 1538.2 ± 6.6 kg/m3
SMILES: [Ca+2].[Cl-].[Cl-] [calcium chloride] + O

mass density (w1 = 0.2722): 1175 ± 2.4 kg/m3
SMILES: [Cl-].[Na+] [sodium chloride] + O

mass density (w1 = 0.8225): 2274.8 ± 7 kg/m3
SMILES: [Cl-].[Cl-].[Zn+2] [zinc chloride] + O
